The record followed here is US8796272B2, “Glycine transporter-inhibiting substances” (Taisho Pharmaceutical Co., Ltd, priority 2011, dated 2014).

SMILES strings stand for the structures.

The target of the test is T1, human type 1 glycine transporter (GlyT1) (Homo sapiens, UniProt P48067).
T1 construct: T98G cells (glioma cells) expressing human type 1 glycine transporter (GlyT1) were used; endogenous in cells; host or cells: T98G cells (human glioma)
T1 sequence (P48067 1-706): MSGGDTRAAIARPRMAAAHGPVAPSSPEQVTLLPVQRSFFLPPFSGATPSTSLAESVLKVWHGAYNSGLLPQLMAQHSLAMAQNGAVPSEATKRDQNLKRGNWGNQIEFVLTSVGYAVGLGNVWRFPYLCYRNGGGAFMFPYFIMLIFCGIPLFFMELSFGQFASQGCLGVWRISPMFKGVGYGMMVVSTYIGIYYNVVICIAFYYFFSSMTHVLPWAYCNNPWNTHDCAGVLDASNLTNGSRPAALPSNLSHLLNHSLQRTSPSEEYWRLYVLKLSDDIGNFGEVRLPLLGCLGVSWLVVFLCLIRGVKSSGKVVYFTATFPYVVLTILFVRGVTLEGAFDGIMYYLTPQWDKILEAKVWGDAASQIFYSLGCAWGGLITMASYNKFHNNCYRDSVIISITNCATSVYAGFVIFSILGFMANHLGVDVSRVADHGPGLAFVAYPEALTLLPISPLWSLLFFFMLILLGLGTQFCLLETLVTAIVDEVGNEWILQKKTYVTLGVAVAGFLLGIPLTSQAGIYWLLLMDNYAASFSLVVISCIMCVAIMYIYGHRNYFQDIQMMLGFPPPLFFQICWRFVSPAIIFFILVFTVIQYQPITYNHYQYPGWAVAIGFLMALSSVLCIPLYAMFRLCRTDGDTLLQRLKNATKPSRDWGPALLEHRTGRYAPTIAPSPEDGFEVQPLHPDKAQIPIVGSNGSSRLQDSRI
The test can be described thus: Glycine uptake inhibition experiment ([3H] glycine uptake). To be noted: T98G cells (glioma cells) expressing human GlyT1; [3H] glycine 250 nM; 10-min pretreatment, 15 minutes at room temperature; read-out: glycine uptake inhibitory activity (IC50 value). It is filed as cell-based. How it is done: A glycine uptake experiment was conducted in accordance with the method published in Neuron, 8, 927-935, 1992. In the experiment, T98G cells (glioma cells) expressing human type 1 glycine transporter (GlyT1) were used. The T98G cells were seeded in a 96-well plate at 2.0×10^4 cells/well and cultured overnight in a CO2 incubator. The test substance was dissolved in a 100% DMSO solution and then dissolved in a 10 mM HEPES buffer solution (pH 7.4) containing 150 mM sodium chloride, 1 mM calcium chloride, 5 mM potassium chloride, 1 mM magnesium chloride, 10 mM glucose and 0.2% bovine serum albumin. After removing the cell culture medium, the test substance was subjected to a 10-min pretreatment. Subsequently, the test substance and [^3H] glycine (final concentration: 250 nM) were added to the cells and reaction was performed at room temperature for 15 minutes. After the end of the reaction, the extracellular fluid was aspirated with a manifold to remove excess labeled glycine present outside the cells, and then the cells were lysed with a 0.5 M aqueous sodium hydroxide solution. The glycine content in the cells was determined by measuring the radioactivity in the cell lysate with a liquid scintillation counter. Glycine uptake in the presence of 10 μM ALX^5407 was defined as non-specific uptake, and the value calculated by subtracting the amount of the non-specific uptake from the total uptake in the absence of 10 μM ALX5407 was defined as specific uptake. In addition, glycine uptake inhibitory activity (IC50 value) was calculated from an inhibition curve at the concentrations of each test substance ranging from 10^−9 to 10^−5 M.
It should be noted that ALX^5407 is an HCl salt of N-[(3R)-3-([1,1′-biphenyl]-4-yloxy)-3-(4-fluorophenyl)propyl]-N-methylglycine.
Usually IC50 stands for the concentration needed to halve the response being measured. On to `O=C(CN1C(=O)N(c2ccc(C(F)(F)F)nc2)C[C@@H]1CC1CCCCC1)Nc1cccc(C(F)(F)F)c1` [Compound 8], for which the IC50 came out at 660 nM.

Consider `CC(C)[C@H]1CN(c2ccc(F)cn2)C(=O)N1CC(=O)Nc1cccc(C(F)(F)F)c1` [Compound 11], for which the IC50 amounted to 89 nM.

On to `O=C(CN1C(=O)N(c2ccc(C(F)(F)F)nc2)C[C@@H]1c1ccccc1)Nc1cccc(C(F)(F)F)c1` [Compound 12], for which the IC50 was determined as 71 nM.

In the case of `CC(C)(C)[C@H]1CN(c2ccc(C(F)(F)F)nc2)C(=O)N1CC(=O)Nc1cccc(C(F)(F)F)c1` [Compound 13], the IC50 worked out at 74 nM.

On to `CC(C)[C@H]1CN(c2ccc(C(F)(F)F)nc2)C(=O)N1CC(=O)Nc1nnc(C(F)(F)F)s1` [Compound 54], for which the IC50 is 800 nM.

Regarding `CC(C)[C@H]1CN(c2ccc(C(F)(F)F)nc2)C(=O)N1CC(=O)Nc1cncc(Cl)c1` [Compound 61], the IC50 came out at 53 nM.

For the molecule `CC(C)[C@H]1CN(c2ncc(Cl)cn2)C(=O)N1CC(=O)Nc1cc(C(F)(F)F)ccn1` [Compound 62], the IC50 was 33 nM.

Consider `COc1cnc(N2C[C@H](C(C)C)N(CC(=O)Nc3cc(C(F)(F)F)ccn3)C2=O)nc1` [Compound 93], for which the IC50 is 54 nM.

With `CC(C)[C@H]1CN(c2ccc(C(F)(F)F)nc2)C(=O)N1CC(=O)Nc1cc(C(C)(C)C)no1` [Compound 103], the IC50 was found to be 230 nM.

Consider `CCc1cnc(N2C[C@H](C(C)C)N(CC(=O)Nc3ccc(C(F)(F)F)nc3)C2=O)nc1` [Compound 104], for which the IC50 came to 240 nM.

For `COC(C)(C)[C@H]1CN(c2ccc(C(F)(F)F)nc2)C(=O)N1CC(=O)Nc1cc(C(F)(F)F)ccn1` [Compound 148], the IC50 is 75 nM.

Turning to `O=C(CN1C(=O)N(c2ncc(C(F)(F)F)cc2F)C[C@@H]1CC1CC1)Nc1cc(Cl)ccn1` [Compound 152], the IC50 was 43 nM.

Turning to `CCc1ccnc(NC(=O)CN2C(=O)N(c3cnc(C(F)(F)F)nc3)C[C@@H]2C(C)C)c1` [Compound 165], the IC50 was found to be 150 nM.

As to `CCOc1ccc(N2C[C@H](C(C)C)N(CC(=O)Nc3cc(Cl)ccn3)C2=O)nc1` [Compound 186], the IC50 is 45 nM.

In the case of `CC(C)[C@H]1CN(c2ncc(F)cn2)C(=O)N1CC(=O)Nc1cc(Cl)ccn1` [Compound 188], the IC50 is 600 nM.

For the molecule `CC(C)[C@H]1CN(c2ncc(C3CC3)cn2)C(=O)N1CC(=O)Nc1cc(C(F)(F)F)ccn1` [Compound 193], the IC50 was 22 nM.

`CCOc1cnc(N2C[C@H]([C@@H](F)CC)N(CC(=O)Nc3cc(C(F)(F)F)ccn3)C2=O)nc1` [Compound 220]: the IC50 was 17 nM.

In the case of `CCOc1cnc(N2C[C@H]([C@@H](C)CC)N(CC(=O)Nc3cc(Cl)ccn3)C2=O)nc1` [Compound 248], the IC50 amounted to 16 nM.

In the case of `CC[C@H](C)[C@H]1CN(c2ncc(C3CC3)cn2)C(=O)N1CC(=O)Nc1cc(Cl)ccn1` [Compound 249], the IC50 was determined as 18 nM.

Take `CCOc1cnc(N2C[C@H]([C@@H](C)CC)N(CC(=O)Nc3cc(C4CC4)ccn3)C2=O)nc1` [Compound 250]: the IC50 was 24 nM.
